Reference: ChEMBL document CHEMBL1144019 (Bioorg Med Chem, 2008)
Values after ≈ are worked out from the molar mass of the structure shown.

What was measured:
Type in all cases: functional
Pseudomonas aeruginosa [1] = assay: Antibacterial activity against imipenem-resistant Pseudomonas aeruginosa SR-6554 by standard serial agar dilution method
Moraxella catarrhalis = assay: Antibacterial activity against Moraxella catarrhalis ATCC 43617 by standard serial agar dilution method
Escherichia coli [2] = assay: Antibacterial activity against Escherichia coli SR-21003 by standard serial agar dilution method
Staphylococcus aureus = assay: Antibacterial activity against Staphylococcus aureus Smith by standard serial agar dilution method
Pseudomonas aeruginosa [3] = assay: Antibacterial activity against Pseudomonas aeruginosa SR-5393 by standard serial agar dilution method
Enterobacter cloacae [4] = assay: Antibacterial activity against AmpC producing Enterobacter cloacae SR-4321 by standard serial agar dilution method
Streptococcus pneumoniae = assay: Antibacterial activity against penicillin-resistant Streptococcus pneumoniae SR-16675 by standard serial agar dilution method
Haemophilus influenzae [5] = assay: Antibacterial activity against beta-lactamase negative ampicillin-resistant Haemophilus influenzae SR-11435 by standard serial agar dilution method
Haemophilus influenzae [6] = assay: Antibacterial activity against Haemophilus influenzae ATCC 49766 by standard serial agar dilution method
Pseudomonas aeruginosa [7] = assay: Antibacterial activity against Pseudomonas aeruginosa SR24 by standard serial agar dilution method
Pseudomonas aeruginosa [8] = assay: Antibacterial activity against AmpC hyperproducing Pseudomonas aeruginosa SR24-12 by standard serial agar dilution method
Enterobacter cloacae [9] = assay: Antibacterial activity against Enterobacter cloacae ATCC 13047 by standard serial agar dilution method
Escherichia coli [10] = assay: Antibacterial activity against Toho 2 producing Escherichia coli by standard serial agar dilution method

SMILES	MIC (Pseudomonas aeruginosa [1])	MIC (Moraxella catarrhalis)	MIC (Escherichia coli [2])	MIC (Staphylococcus aureus)	MIC (Pseudomonas aeruginosa [3])	MIC (Enterobacter cloacae [4])	MIC (Streptococcus pneumoniae)	MIC (Haemophilus influenzae [5])	MIC (Haemophilus influenzae [6])	MIC (Pseudomonas aeruginosa [7])	MIC (Pseudomonas aeruginosa [8])	MIC (Enterobacter cloacae [9])	MIC (Escherichia coli [10])
CNCCn1ccc2c1ccc[n+]2CC1=C(C(=O)[O-])N2C(=O)[C@@H](NC(=O)/C(=N\O[C@@H](C)C(=O)O)c3nc(N)sc3Cl)[C@H]2SC1	8 µg/mL (≈ 12.1 µM)	0.032 µg/mL (≈ 0.0483 µM)	0.5 µg/mL (≈ 0.754 µM)	2 µg/mL (≈ 3.02 µM)	2 µg/mL (≈ 3.02 µM)	2 µg/mL (≈ 3.02 µM)	4 µg/mL (≈ 6.03 µM)	0.125 µg/mL (≈ 0.188 µM)	0.032 µg/mL (≈ 0.0483 µM)	1 µg/mL (≈ 1.51 µM)	4 µg/mL (≈ 6.03 µM)	0.5 µg/mL (≈ 0.754 µM)	2 µg/mL (≈ 3.02 µM)
C[C@H](O/N=C(\C(=O)N[C@@H]1C(=O)N2C(C(=O)[O-])=C(C[n+]3cccc4c3nc(N)n4CCNCCO)CS[C@H]12)c1nc(N)sc1Cl)C(=O)O	16 µg/mL (≈ 22.6 µM)	0.016 µg/mL (≈ 0.0226 µM)	0.5 µg/mL (≈ 0.705 µM)	4 µg/mL (≈ 5.64 µM)	4 µg/mL (≈ 5.64 µM)	2 µg/mL (≈ 2.82 µM)	2 µg/mL (≈ 2.82 µM)	0.063 µg/mL (≈ 0.0888 µM)	0.032 µg/mL (≈ 0.0451 µM)	1 µg/mL (≈ 1.41 µM)	4 µg/mL (≈ 5.64 µM)	0.5 µg/mL (≈ 0.705 µM)	4 µg/mL (≈ 5.64 µM)
CNCCn1ccc2c[n+](CC3=C(C(=O)[O-])N4C(=O)[C@@H](NC(=O)/C(=N\O[C@@H](C)C(=O)O)c5nc(N)sc5Cl)[C@H]4SC3)ccc21	8 µg/mL (≈ 12.1 µM)	0.032 µg/mL (≈ 0.0483 µM)	0.25 µg/mL (≈ 0.377 µM)	4 µg/mL (≈ 6.03 µM)	2 µg/mL (≈ 3.02 µM)	8 µg/mL (≈ 12.1 µM)	4 µg/mL (≈ 6.03 µM)	0.125 µg/mL (≈ 0.188 µM)	0.032 µg/mL (≈ 0.0483 µM)	1 µg/mL (≈ 1.51 µM)	4 µg/mL (≈ 6.03 µM)	0.5 µg/mL (≈ 0.754 µM)	2 µg/mL (≈ 3.02 µM)
C[C@H](O/N=C(\C(=O)N[C@@H]1C(=O)N2C(C(=O)[O-])=C(C[n+]3cccc4c3ccn4CCOC(N)=O)CS[C@H]12)c1nc(N)sc1Cl)C(=O)O	8 µg/mL (≈ 11.5 µM)	0.032 µg/mL (≈ 0.0462 µM)	0.25 µg/mL (≈ 0.361 µM)	2 µg/mL (≈ 2.89 µM)	2 µg/mL (≈ 2.89 µM)	2 µg/mL (≈ 2.89 µM)	2 µg/mL (≈ 2.89 µM)	0.063 µg/mL (≈ 0.0909 µM)	0.032 µg/mL (≈ 0.0462 µM)	0.5 µg/mL (≈ 0.721 µM)	4 µg/mL (≈ 5.77 µM)	0.25 µg/mL (≈ 0.361 µM)	2 µg/mL (≈ 2.89 µM)
C[C@H](O/N=C(\C(=O)N[C@@H]1C(=O)N2C(C(=O)[O-])=C(C[n+]3ccc(NC4CNC4)cc3)CS[C@H]12)c1nc(N)sc1Cl)C(=O)O	8 µg/mL (≈ 12.6 µM)	0.016 µg/mL (≈ 0.0251 µM)	0.5 µg/mL (≈ 0.785 µM)	2 µg/mL (≈ 3.14 µM)	2 µg/mL (≈ 3.14 µM)	4 µg/mL (≈ 6.28 µM)	4 µg/mL (≈ 6.28 µM)	0.25 µg/mL (≈ 0.392 µM)	0.063 µg/mL (≈ 0.0989 µM)	0.5 µg/mL (≈ 0.785 µM)	4 µg/mL (≈ 6.28 µM)	0.5 µg/mL (≈ 0.785 µM)	4 µg/mL (≈ 6.28 µM)
C[C@H](O/N=C(\C(=O)N[C@@H]1C(=O)N2C(C(=O)[O-])=C(C[n+]3cccc4c3ccn4CC(=O)O)CS[C@H]12)c1nc(N)sc1Cl)C(=O)O	32 µg/mL (≈ 48.2 µM)	0.032 µg/mL (≈ 0.0482 µM)	0.5 µg/mL (≈ 0.753 µM)	8 µg/mL (≈ 12 µM)	4 µg/mL (≈ 6.02 µM)	16 µg/mL (≈ 24.1 µM)	4 µg/mL (≈ 6.02 µM)	0.063 µg/mL (≈ 0.0949 µM)	0.016 µg/mL (≈ 0.0241 µM)	2 µg/mL (≈ 3.01 µM)	32 µg/mL (≈ 48.2 µM)	1 µg/mL (≈ 1.51 µM)	4 µg/mL (≈ 6.02 µM)
CNCCn1nnc2c1ccc[n+]2CC1=C(C(=O)[O-])N2C(=O)[C@@H](NC(=O)/C(=N\O[C@@H](C)C(=O)O)c3nc(N)sc3Cl)[C@H]2SC1	64 µg/mL (≈ 96.2 µM)	0.032 µg/mL (≈ 0.0481 µM)	0.25 µg/mL (≈ 0.376 µM)	4 µg/mL (≈ 6.01 µM)	8 µg/mL (≈ 12 µM)	8 µg/mL (≈ 12 µM)	2 µg/mL (≈ 3.01 µM)	0.5 µg/mL (≈ 0.752 µM)	0.125 µg/mL (≈ 0.188 µM)	2 µg/mL (≈ 3.01 µM)	64 µg/mL (≈ 96.2 µM)	0.5 µg/mL (≈ 0.752 µM)	2 µg/mL (≈ 3.01 µM)
C[C@H](O/N=C(\C(=O)N[C@@H]1C(=O)N2C(C(=O)[O-])=C(C[n+]3cccc4c3nc(N)n4[C@H]3CCNC3)CS[C@H]12)c1nc(N)sc1Cl)C(=O)O	8 µg/mL (≈ 11.6 µM)	0.016 µg/mL (≈ 0.0231 µM)	0.25 µg/mL (≈ 0.362 µM)	4 µg/mL (≈ 5.79 µM)	2 µg/mL (≈ 2.89 µM)	2 µg/mL (≈ 2.89 µM)	2 µg/mL (≈ 2.89 µM)	0.125 µg/mL (≈ 0.181 µM)	0.032 µg/mL (≈ 0.0463 µM)	0.5 µg/mL (≈ 0.723 µM)	2 µg/mL (≈ 2.89 µM)	0.5 µg/mL (≈ 0.723 µM)	2 µg/mL (≈ 2.89 µM)
CNCCCn1c(N)cc2c1ccc[n+]2CC1=C(C(=O)[O-])N2C(=O)[C@@H](NC(=O)/C(=N\O[C@@H](C)C(=O)O)c3nc(N)sc3Cl)[C@H]2SC1	16 µg/mL (≈ 23.1 µM)	0.016 µg/mL (≈ 0.0231 µM)	0.25 µg/mL (≈ 0.361 µM)	1 µg/mL (≈ 1.44 µM)	2 µg/mL (≈ 2.89 µM)	2 µg/mL (≈ 2.89 µM)	4 µg/mL (≈ 5.78 µM)	0.063 µg/mL (≈ 0.091 µM)	0.016 µg/mL (≈ 0.0231 µM)	0.5 µg/mL (≈ 0.722 µM)	2 µg/mL (≈ 2.89 µM)	0.5 µg/mL (≈ 0.722 µM)	2 µg/mL (≈ 2.89 µM)
C[C@H](O/N=C(\C(=O)N[C@@H]1C(=O)N2C(C(=O)[O-])=C(C[n+]3cccc4c3ccn4CCNS(N)(=O)=O)CS[C@H]12)c1nc(N)sc1Cl)C(=O)O	8 µg/mL (≈ 11 µM)	0.016 µg/mL (≈ 0.022 µM)	0.25 µg/mL (≈ 0.343 µM)	2 µg/mL (≈ 2.75 µM)	4 µg/mL (≈ 5.49 µM)	4 µg/mL (≈ 5.49 µM)	2 µg/mL (≈ 2.75 µM)	0.063 µg/mL (≈ 0.0865 µM)	0.032 µg/mL (≈ 0.0439 µM)	1 µg/mL (≈ 1.37 µM)	4 µg/mL (≈ 5.49 µM)	0.5 µg/mL (≈ 0.687 µM)	2 µg/mL (≈ 2.75 µM)
CNCCn1ncc2c1ccc[n+]2CC1=C(C(=O)[O-])N2C(=O)[C@@H](NC(=O)/C(=N\O[C@@H](C)C(=O)O)c3nc(N)sc3Cl)[C@H]2SC1	16 µg/mL (≈ 24.1 µM)	0.032 µg/mL (≈ 0.0482 µM)	1 µg/mL (≈ 1.51 µM)	4 µg/mL (≈ 6.02 µM)	4 µg/mL (≈ 6.02 µM)	4 µg/mL (≈ 6.02 µM)	4 µg/mL (≈ 6.02 µM)	0.125 µg/mL (≈ 0.188 µM)	0.125 µg/mL (≈ 0.188 µM)	1 µg/mL (≈ 1.51 µM)	8 µg/mL (≈ 12 µM)	1 µg/mL (≈ 1.51 µM)	4 µg/mL (≈ 6.02 µM)
